Consider one compound from US20200352889A1, “CYSTATHIONINE COMPOSITIONS AND METHODS OF TREATMENT FOR HEALTH CONDITIONS” (THE REGENTS OF THE UNIVERSITY OF COLORADO, A BODY CORPORATE, priority 2011, published 2020).

“Also recorded” adds a separate entry of the source.

One experiment relates to 293AD cells. Put plainly: Tunicamycin-induced cell death, LDH release and phase-contrast, 293AD cells. The class given is cell-based, human. As for the experimental part: (§1) Cells were seeded in triplicate at ˜75% confluence and pre-treated with either PPG) (5 mM), Cystathionine (1 mM) or with just complete media (DMEM, 10% FBS) as a control. After 24 hr pre-treatment, cells looked normal, with minimal floating cells. Fresh media with 1% FBS was then added to each well, the cells were further treated with Tm (either 5 or 10 ug)/ml. After 18 hr. treatment with Tunicamycin, cells were photographed under phase-contrast with a Zeiss Axiovert 25 microscope for evidence of dead floating cells. Cells from the group treated solely with tunicamycin became strikingly hyper-refringent, detached from the substratum and floated in the media. […] To further evaluate a role for cystathionine in resisting the induction of cell death by tunicamycin, cell lysis was quantified by assaying lactate dehydrogenase (LDH) release. The enzyme activity was determined spectrophotometrically and the amount of enzyme leak was expressed as a percentage of the LDH activity observed in untreated control cells.
HepG2, 293AD and a23 cells were seeded in triplicate at ˜75% confluence and were pre-treated with either propargylglycine (PPG) (5 mM) or cystathionine (5 mM) in complete media (DMEM, 10% FBS). After 24 hours, fresh media with 1% FBS was added to each well. Cells were then further treated with tunicamycin (either 5 or 10 ug/ml) for 18 hr treatment. Cells were subsequently photographed under phase-contrast with a Zeiss Axiovert 25 microscope for evidence of dead floating cells. To quantify cell death the media supernatant was collected for LDH release assay using a kit from Roche Applied Science (Cat.No.11 644 793 001) according to the manufacturer's standard protocol where cytotoxicity (%)=((experimental value-low control/(high control-low control))×100.
as §1, with “24 hr.” for “24 hr”

The test system of experiment [1] is KDEL containing chaperones and GADD153. As to the kind of experiment: Immunohistochemical analysis of unfolded protein response in liver and kidney. The class given is in vivo, mouse. As for the experimental part:
While it is not necessary to understand the mechanism of action, it is believed cystathionine may protect against ER stress induced cell injury by increasing the induction of molecular chaperones like Grp78 or by inhibiting the induction of GADD153. In order to investigate the mechanism by which cystathionine is protecting against ER stress induced tissue injury, an immunohistochemical analysis of liver and kidney tissues samples from the experimental groups described above was performed. […] Strong induction of KDEL containing proteins and GADD153 by tunicamycin treatment in both liver and kidneys of the tunicamycin groups was observed (FIG. 8, Panel B).
Prolonged perturbation of the ER is a powerful inducer of the C/EBP family member GADD153 (also known as CHOP) that plays a key role in the induction of programmed cell death by ER stress (10). Previous work has shown that GRP78 over-expression in Chinese hamster ovary cells attenuates both the ER stress-signal and the cell death that is observed in response to calcium ionophores (22) and blocking the expression of GRP78 by means of antisense constructs increase the lethality of agents that promote ER stress (23). Within this context, it is conceivable that cystathionine could protect against ER stress induced cell injury by increasing the induction of molecular chaperones like Grp78 or by inhibiting the induction of GADD153. […]

Turning to `C#CCC(N)C(=O)O` (racemic) [PPG, D,L-2-amino-4-pentynoic acid], the “prevention of tunicamycin-induced cell death (LDH release)” value with 293AD cells (293AD cells, tunicamycin 5 μg/ml 18 hr, 24 hr pre-treatment PPG 5 mM) is reported as “largely prevented”. The “reduction in cell death (LDH release)” value in the experiment with 293AD cells (293AD cells, tunicamycin 10 μg/ml 18 hr, 24 hr pre-treatment PPG 5 mM or cystathionine 1 mM, p<0.0001) is 11 fold. The “floating dead cells (phase-contrast)” value with 293AD cells (tunicamycin 18 hr after PPG or cystathionine pre-treatment) is “No floating dead cells were observed; also recorded: not evident”. Further, the “expression of KDEL signature proteins” value in experiment [1] (PPG treatment alone) is recorded as “did not induce expression”. Further, the “level of induction of KDEL containing chaperones and GADD153 by tunicamycin” value in experiment [1] (tunicamycin + PPG, liver and kidney) is given as “did not appear to affect the level of induction”.
